Laboratory results reported in publication PMC12455078, “Synthesis, pharmacokinetic studies, and metabolite analysis of meridianin C in rats using a validated ultra high performance liquid chromatography-tandem mass spectrometry method” (Frontiers in Pharmacology, 2025).
Blank lines part the entries; values can stand above or below the compound they belong to.

Experiments:
[1] = Pharmacokinetics of MC and its metabolites in rat plasma after a single oral dose of MC (UHPLC-MS/MS); type: in vivo, Sprague Dawley rats; conditions: for Tmax / half-life / Cmax / AUC(0-t): male, Sprague Dawley, single oral (intragastric) 100 mg/kg MC; for Tmax / half-life: n = 6; for Cmax: n = 6, metabolites quantified with the MC calibration curve; for AUC(0-t): n = 6, non-compartmental, metabolites quantified with the MC calibration curve, read-out: AUC0–48h; for AUC0–48h fold less than that of MC / Concentration in plasma samples relative to limit of quantification: single oral 100 mg/kg MC
Description: Sprague Dawley rats (male, 220–250 g) were purchased from the SPF Biotechnology Co., Ltd. (Beijing, China). Animals were acclimated under controlled conditions (temperature 22 °C ± 2 °C, humidity 50%–60%, 12 h light cycle) with unlimited fodder and water access for 7 days. The animal experiments were approved by the Animal Experiment Ethics Review Committee of Jiangsu Vocational College of Medicine, Yancheng, China (LLSQ-2021-031106).
After fasting overnight, six rats were orally administered 100 mg/kg MC suspended in 0.5% carboxymethyl cellulose sodium solution (10.0 mg/mL). Blood samples (about 300 μL) were collected into heparinized polythene tubes from the suborbital vein at 0, 0.25, 0.5, 1, 2, 3, 4, 8, 12, 24, 36 and 48 h after administration. All samples were immediately centrifuged at 6,125 g for 5 min at 4 °C to acquire plasma. The plasma samples were preserved at − 80 °C until further analysis.
For the measurement of the concentrations of MC and its metabolites, three times volume of methanol, containing 20 µL IS (puerarin, 2,160.0 ng/mL), were added to 100 µL plasma samples to precipitate protein. After vortexing for 2 min, the mixtures were centrifuged at 6,125 g for 10 min at 4 °C. The obtained supernatants were transferred to fresh tubes and allowed to be dried at room temperature by a nitrogen blowing instrument. Then, the remaining residues were re-dissolved with 100 µL methanol–water (80:20, v/v). Following centrifugation at 16,173 g for 10 min, the supernatants were transferred and used for UHPLC/[…] assessment. The injection volume of each sample was 1 μL.
The UHPLC-MS system comprised of an Acquity UPLC system (Waters, Milford, United States) and Waters TQD tandem mass spectrometer equipped with an electrospray ionization (ESI) source. A Waters ACQUITY BEH C18 column (100 × 2.1 mm, 1.7 μm, Waters, Milford, United States) was used for the chromatography separation. The column temperature was set to 40 °C. The mobile phase was composed of 0.1% formic acid in water (A) and 0.1% formic acid in acetonitrile (B) with a fixed flow rate at 0.4 mL/min. A gradient elution program was used as follows: 0–1.5 min, 5%–20% B; 1.5–5 min, 20%–30% B; 5–7 min, 30%–95% B; 7–9 min, 95% B; 9–11 min, 95% B.
The MS tune parameters were set as mentioned below. The desolvation of the source temperatures was set at 500 °C. The flow rate of nebulization gas was 650 L/h. The capillary voltage was set at 2.8 kV in the positive ionization mode. The cone voltages were maintained at 35 V for all the tested ingredients. All data were obtained via the multiple reaction monitoring (MRM) ion mode. The range of m/z for the data collection was set at 100–1,500 Da. Transitions, cone voltage and a collision energy of MC and its metabolites were optimized (Table 2). The mass spectrum of MC and the chemical structures of its MS/MS fragments is shown in Figure 4, and The mass spectrum of puerarin and the chemical structures of its MS/MS fragments is shown in Figure 5. MassLynx™ software version 4.1 was used for data acquisition and TargetLynx™ (Waters, Milford, MA, United States) was applied to quantitation.
The concentrations of MC in the collected plasma samples were quantified by the established calibration curve based on peak areas of corresponding components. Owing to the lack of corresponding standards, calibration curves for the metabolites were not established. It has been reported that the concentrations of the metabolites could be quantified according to calibration curve of parent drug. This is possible due to the structural similarity of their parent nucleus ([Zhang et al., 2015]). Therefore, in this study, the concentrations of the metabolites were calculated via the calibration curve of MC. The main pharmacokinetic parameters of MC and its metabolites were calculated via a non-compartmental model with the pharmacokinetic software, DAS (ver. 2.0, Chinese Pharmacology Association, Shanghai, China). […]

[2] = Stability of MC in rat plasma QC samples under storage conditions; type: in vitro ADME; conditions: for Stability (re, %) 20 °C–25 °C/24 h / Stability (re, %) −20 °C/30 days / Stability (re, %) Freeze-thaw (3 cycles): n = 3; for Stability (re, %) Freeze-thaw (3 cycles): −20 °C to ambient temperature
Description: MC, accurately weighted, was firstly dissolved in methanol to acquire the standard stock solutions (250 μg/mL). A set of standard working solutions (25,000.0 ng/mL, 12,500.0 ng/mL, 2,500.0 ng/mL, 1,250.0 ng/mL, 625.0 ng/mL, 250.0 ng/mL, 125.0 ng/mL, 31.25 ng/mL) were obtained by diluting the stock solutions with methanol. An aliquot of 20 µL of these standard working solutions was then spiked into 1.5 mL polythene tubes and the solvent of methanol was evaporated at room temperature. Afterwards, the calibration standards (5,000.0 ng/mL, 2,500.0 ng/mL, 500.0 ng/mL, 250.0 ng/mL, 125.0 ng/mL, 50.0 ng/mL, 25.0 ng/mL, 6.25 ng/mL) were obtained by adding blank plasma (100 µL) into the tubes and fully mixing. The preparation method of quality control samples (QCs, 25.0 ng/mL, 1,250.0 ng/mL, 4,000.0 ng/mL) was identical with that of the calibration standards. All solutions were stored at 4 °C until further use.
All method validation procedures were performed strictly in accordance with the US FDA Guidance for Industry on Bioanalytical Method Validation ([FDA, 2018]). The assessment of selectivity was performed via comparing chromatograms among blank rat plasma (six different batches) and rat plasma spiked with MC and IS. The evaluation of linearity was carried out using weighted (1/x^2) least-squares analysis of two sets of calibration standards. Three different concentrations of Quality Check: QCs (n = 6) standards were used and detected on three different days to evaluate the intra-day and inter-day precision and the accuracy. Similarly, matrix effect and extraction recovery were assessed using three different concentrations of QCs (n = 6). The matrix effect was evaluated via calculating the peak area ratio of MC in post-spiked QCs and the solvent-substituted samples with same concentration. The extraction recovery was assessed via calculating the peak area ratio of MC in pre-spiked and post-spiked QCs. The stability of MC was examined using three concentrations of QCs (n = 3) under three different storage conditions, including freeze-thaw stability (three cycles from −20 °C to ambient temperature), short-term stability (storage at 20 °C–25 °C for 24 h), and long-term stability (storage at −20 °C for 30 days).
The stability was estimated by analyzing QCs (25.0, 1,250.0, and 4,000.0 ng/mL) after storing in three different conditions: three freeze-thaw cycles (−20 °C to ambient temperature), 20 °C–25 for 24 h, and - 20 °C for 30 days. As presented in Table 5, the deviations in the stabilities of MC ranged from - 8.5% to 13.5% under the three different storage conditions.

[3] = design: method as in Hasa et al., 2013; conditions: ref Hasa et al., 2013; cited from earlier work

Tmax [1]: 0.5 ± 0.27 h
half-life [1]: 4.4 ± 2.7 h
Cmax [1]: 6.4 ± 2 µM
AUC(0-t) [1]: 20.9 ± 8.5 µM·h
AUC0–48h fold less than that of MC [1]: 11.1 fold
SMILES: Nc1nccc(-c2cn(OS(=O)(=O)O)c3ccc(Br)cc23)n1 [M2]

Concentration in plasma samples relative to limit of quantification [1]: lower than the limit of quantification
SMILES: Nc1nccc(-c2cn(O)c3ccc(Br)cc23)n1 [M3]

Concentration in plasma samples relative to limit of quantification [1]: lower than the limit of quantification
SMILES: ONc1nccc(-c2cn(O)c3ccc(Br)cc23)n1 [M8]

Tmax [1]: 0.88 ± 0.63 h
half-life [1]: 3.4 ± 2.2 h
Cmax [1]: 1.6 ± 0.6 µM
AUC(0-t) [1]: 4 ± 1.1 µM·h
AUC0–48h fold less than that of MC [1]: 58.7 fold
SMILES: O=S(=O)(O)ONc1nccc(-c2c[nH]c3ccc(Br)cc23)n1 [M11]

Further lines, the compound ahead of its results:

SMILES: Nc1nccc(-c2c[nH]c3ccc(Br)cc23)n1 [MC, Meridianin C]
Stability (re, %) 20 °C–25 °C/24 h ([2]; rat plasma, 25.0 ng/mL): 12.5%
Stability (re, %) −20 °C/30 days ([2]; rat plasma, 25.0 ng/mL): 10.6%
Stability (re, %) Freeze-thaw (3 cycles) ([2]; rat plasma, 25.0 ng/mL): 13.5%
Stability (re, %) 20 °C–25 °C/24 h ([2]; rat plasma, 1,250.0 ng/mL): 7.9%
Stability (re, %) −20 °C/30 days ([2]; rat plasma, 1,250.0 ng/mL): 5.2%
Stability (re, %) Freeze-thaw (3 cycles) ([2]; rat plasma, 1,250.0 ng/mL): 12.6%
Stability (re, %) 20 °C–25 °C/24 h ([2]; rat plasma, 4,000.0 ng/mL): −6.8%
Stability (re, %) −20 °C/30 days ([2]; rat plasma, 4,000.0 ng/mL): −8.5%
Stability (re, %) Freeze-thaw (3 cycles) ([2]; rat plasma, 4,000.0 ng/mL): 9.3%
Stability in rat plasma (in words) ([2]; three freeze-thaw cycles, 20 °C–25 °C for 24 h, −20 °C for 30 days): stable
Tmax [1]: 0.75 ± 0.27 h
half-life [1]: 17.7 ± 14.1 h
Cmax [1]: 44.8 ± 7 µM
AUC(0-t) [1]: 232 ± 85.9 µM·h

SMILES: CC[C@]12CCCN3CCc4c(n(c5ccccc45)[C@@](O)(C(=O)OC)C1)[C@@H]32 [vincamine]
Bioavailability [3]: low bioavailability
